According to patent publication US5585352A, “Method of treating septic shock using thymosin-α 1” (The George Washington University Medical Center, priority 1994, dated 1996):
No end group written: not given here.

Experiments:
IL-1α = assay: Serum IL-1α levels in mice treated with lethal doses of endotoxin; type: in vivo, Swiss-Webster mice
Method: (§1) Swiss-Webster mice 4-6 weeks of age (20-25 g) were divided into 2 groups: endotoxic mice (endotoxin 60 mg/kg i.p. in acute treatment) and endotoxic mice treated with 3 injections of 100 μg Tα1 (5 minutes, 2 and 4 hours post administration of the endotoxin).
(§2) *Mice were pretreated with SOD (super oxide dismatase), 30 minutes before
(§3) endotoxin administration XX blood for determined of TNFα and
(§4) IL1α levels was collected 1 hr after endotoxin administration.
(§5) Using the same methods and materials as in examples 1 and 2, the effect which Tα1 has on blood levels of IL-1α, TNF-α, PAG, Txβ2 and 6-keto-PGF1 α, which are pathological mediators of endotoxin induced lethality, was studied.

TNF-α = assay: Serum TNF-α levels in mice treated with lethal doses of endotoxin; type: in vivo, Swiss-Webster mice
Method: as §1, §2, §3, §4, §5

Txβ2 = Txβ2 plasma levels in mice after lethal dose of endotoxin; type: in vivo, Swiss-Webster mice
Method: as §1, §5

TNFα = TNFα levels in a septic shock model in rat; type: in vivo, Sprague-Dawley rats; settings: Rats with Septic Shock + Tα1 1 mg/rat × 3
Text: (§6) Using a septic shock model in rats (Sprague-Dawley, male, 200-225 g each), the effect of thymosin α1 alone and together with antibiotics was studied. Peritonitis was induced in rats in the following way. A 1-cm incision was made into the peritoneal which exposed the cecum. A tight ligature was placed around the cecum with 4-0 suture distal to the insertion of the small bowel, forming an area of devitalized tissue while maintaining bowel continuity. A puncture wound was made with 16-gauge needle into the anti-mesenteric surface of the cecum and a small amount of fecal contents was expressed through the wound. The cecum was replaced into the peritoneal cavity, and the anterior peritoneal wall and skin were closed with surgical staples. Each animal was given a bolus of normal saline (15 ml/kg) for hydration and allowed to recover overnight.
(§7) **At 0 hr, 2 hr, and 4 hr post induction of peritonitis

malonyldialdehyde [1] = assay: Lipid peroxidation (blood malonyldialdehyde) in a septic shock model in rat; type: in vivo, Sprague-Dawley rats; settings: Rats with Septic + Tα1 1 mg/rat × 3
Text: as §6, §7

6-keto-PGF1α = 6-keto-PGF1α plasma levels in mice after lethal dose of endotoxin; type: in vivo, Swiss-Webster mice
Method: as §1, §5

endotoxic mice = assay: Survival of Swiss Webster mice following lethal endotoxin dose and Tα1; type: in vivo
Method: as §1
Using the same materials and methods as in example 1, the time and dose-dependency of the protective effect of Tα1 on endotoxin lethality were studied.

PAF = PAF blood levels in mice after lethal dose of endotoxin; type: in vivo, Swiss-Webster mice
Method: as §1, §5

[2] = tested on: Cerebellar cortex cyclic GMP; assay: cGMP cerebellar levels in mice treated with lethal doses of endotoxin; type: in vivo, Swiss-Webster mice
Method: as §1

malonyldialdehyde [3] = assay: Blood hydroperoxide (malonyldialdehyde) levels in mice treated with lethal doses of endotoxin; type: in vivo, Swiss-Webster mice
Method: as §1
*Whole blood samples (0.5 ml) were obtained by tail bleds 1 hour after
endotoxin administration

T × β2 = assay: Txβ2 levels in a septic shock model in rat; type: in vivo, Sprague-Dawley rats; settings: Rats with Septic Shock + Tα1 1 mg/rat × 3
Text: as §6, §7

6-keto-PGF1 = 6-keto-PGF1 levels in a septic shock model in rat; type: in vivo, Sprague-Dawley rats; settings: Rats with Septic Shock + Tα1 1 mg/rat × 3
Text: as §6, §7

[4] = tested on: blood free radical levels; assay: Blood free radical levels; type: in vivo; settings: compared with SOD
glutathione (RBC GSH) [5] = assay: Erythrocyte glutathione levels in mice treated with lethal doses of endotoxin; type: in vivo, Swiss-Webster mice
Method: as §1
*Total erythrocyte glutathione, 98% of which is in the reduced form (GSH)
was determined by the enzymatic "cyclic method."-

Rats with Septic Shock = assay: Survival in septic shock model in rats (peritonitis by cecal ligation and puncture); type: in vivo, Sprague-Dawley rats; settings: for Survival of Sprague-Dawley rats, 48 hr / Survival of Sprague-Dawley rats, 72 hr / Survival of Sprague-Dawley rats, 24 hr: rats with peritonitis, both groups got antibiotic (gentamicin sulfate, 1 mg/rat), 10 at 0 hr; for Survival of Sprague-Dawley rats, 48 hr / Survival of Sprague-Dawley rats, 72 hr: thymosin α1 1 mg/rat × 3; for Survival of Sprague-Dawley rats, 24 hr: thymosin α1 1 mg/rat × 3 at 0, 2 and 4 hr post induction; for Number of Rats Alive, 24 h / Number of Rats Alive, 48 h / Number of Rats Alive, 72 h: Rats with Septic Shock + Tα1 1 mg/rat × 3, 10 alive at 0 h
Text: as §6
*gentamicin sulfate, 1 mg/rat
as §7

glutathione (RBC GSH) [6] = assay: Glutathione levels in a rat septic shock model; type: in vivo, Sprague-Dawley rats; settings: Rats with Septic Shock + Tα1 mg/rat × 3
Text: as §6, §7

IL1 α = assay: IL1α levels in a septic shock model in rat; type: in vivo, Sprague-Dawley rats; settings: Rats with Septic Shock + Tα1 1 mg/rat × 3
Text: as §6, §7

[7] = Table IX, Endotoxin 60 mg/kg + Tα1 100 μg administered immediately following
[8] = Table VII, serum, pretreatment with SOD 3.3 × 10^4 μ/kg (30 minutes before endotoxin) or Tα1 100 μg/mice, blood 1 hr after endotoxin
[9] = after administration of a lethal dose of endotoxin
[10] = Table VI, serum, Endotoxin 60 mg/kg + Tα1
[11] = Table XIV, Endotoxin 60 mg/kg + Tα1 100 μg administered immediately following
[12] = Table XI, Endotoxin 60 mg/kg + Tα1 100 μg administered immediately following
[13] = first of two unlabelled columns
[14] = second of two unlabelled columns
[15] = Table XII, Endotoxin 60 mg/kg + Tα1 100 μg administered immediately following
[16] = Table I, Endotoxin 60 mg/kg + Tα1 100 μg 3×, 7 alive at 0 hrs
[17] = Table II, Endotoxin 60 mg/kg + Tα1 100 μg 3×, 8 alive at 0 hr.
[18] = Table VIII, Tα1 10 μg, 3×, immediately following, 2 and 4 hrs. after endotoxin, 8 alive at 0 hrs
[19] = Table VIII, Tα1 100 μg, 3×, 2, 4 and 6 hrs. after endotoxin, 8 alive at 0 hrs
[20] = Table VIII, Tα1 100 μg, 3×, immediately following, 2 and 4 hrs. after endotoxin, 8 alive at 0 hrs
[21] = Table X, Endotoxin 60 mg/kg + Tα1 100 μg administered immediately following
[22] = Table XIII, Endotoxin 60 mg/kg + Tα1 100 μg administered immediately following
[23] = during sepsis, species not given

Thymosin α1 (SDAAVDTSSEITTKDLKEKKEVVEEAEN; ends and bridges not checked; UniProt P06454 2-29, looked up) [Tα1, peptide originally derived from the Thymus gland, 28 amino acids; synthetic Tα1 prepared by solid phase peptide synthesis]
IL-1α (serum levels), 1 hr (IL-1α; [7]): 83 ± 7.1 pg/mL
IL-1α (serum levels), 3 hr (IL-1α; [7]): 165 ± 13.7 pg/mL
IL-1 α (IL-1α; [8]): 109 ± 71 pg/mL
IL-1α serum levels (IL-1α; [9]): decreased
TNF-α, 1 hr (TNF-α; [10]): 638 ± 57 pg/mL
TNF-α, 3 hr (TNF-α; [10]): 426 ± 37 pg/mL
TNF-α, 5 hr (TNF-α; [10]): 297 ± 27 pg/mL
TNF-α (TNF-α; [8]): 285 ± 23.6 pg/mL
TNF-α (serum levels), 1 hr (TNF-α; [11]): 783 pg/mL
TNF-α (serum levels), 3 hr (TNF-α; [11]): 508 pg/mL
TNF-α (serum levels), 5 hr (TNF-α; [11]): 429 pg/mL
TNF-α serum levels (TNF-α; [9]): decreased
T × β2 (plasma levels), 0.5 hr. (Txβ2; [12]): 910 ± 85 pg/mL
T × β2 (plasma levels), 2 hr (Txβ2; [12]): 530 ± 47 pg/mL
T × β2 (plasma levels), 1 hr (Txβ2; Table XI, Endotoxin 60 mg/kg + Tα1 100 μg administered immediately following, spread 185 printed): 1921 pg/mL
T × β2 (plasma levels), 3 hr (Txβ2; Table XI, Endotoxin 60 mg/kg + Tα1 100 μg administered immediately following, spread 260 printed): 391 pg/mL
Txβ2 plasma levels (Txβ2; [9]): decreased
TNFα (TNFα): 1231 ± 129 pg/mL
Blood Levels of malonyldialdehyde (malonyldialdehyde [1]; [13]): 17.1 ± 1.6 nNol MDA
Blood Levels of malonyldialdehyde (malonyldialdehyde [1]; [14]): 21.9 ± 2.3 nNol MDA
6-keto-PGF1α (plasma levels), 0.5 hr. (6-keto-PGF1α; [15]): 224 ± 19 pg/mL
6-keto-PGF1α (plasma levels), 1 hr (6-keto-PGF1α; [15]): 745 ± 62 pg/mL
6-keto-PGF1α (plasma levels), 2 hr (6-keto-PGF1α; [15]): 341 ± 33 pg/mL
6-keto-PGF1α (plasma levels), 3 hr (6-keto-PGF1α; [15]): 205 ± 19 pg/mL
6-keto-PGF1 α plasma levels (6-keto-PGF1α; [9]): decreased
Number of Mice Alive, 24 hrs (endotoxic mice; Table I, Endotoxin 60 mg/kg + Tα1 100 μg 3× (5 minutes, 2 and 4 hours post endotoxin), 7 alive at 0 hrs): 7
Number of Mice Alive, 48 hrs (endotoxic mice; [16]): 7
Number of Mice Alive, 72 hrs (endotoxic mice; [16]): 7
Number of Mice Alive, 24 hr. (endotoxic mice; [17]): 8
Number of Mice Alive, 48 hr. (endotoxic mice; [17]): 8
Number of Mice Alive, 72 hr. (endotoxic mice; [17]): 8
Number of Mice Alive, 7 day (endotoxic mice; [17]): 8
Number of Mice Alive, 14 day (endotoxic mice; [17]): 8
Number of Mice Alive, 24 hrs (endotoxic mice; Table VIII, Endotoxin 60 mg/kg + Tα1 10 μg, 3×, immediately following, 2 and 4 hrs. after endotoxin, 8 alive at 0 hrs): 8
Number of Mice Alive, 24 hrs (endotoxic mice; Table VIII, Endotoxin 60 mg/kg + Tα1 100 μg, 3×, 2, 4 and 6 hrs. after endotoxin, 8 alive at 0 hrs): 8
Number of Mice Alive, 24 hrs (endotoxic mice; Table VIII, Endotoxin 60 mg/kg + Tα1 100 μg, 3×, immediately following, 2 and 4 hrs. after endotoxin, 8 alive at 0 hrs): 8
Number of Mice Alive, 48 hrs (endotoxic mice; [18]): 5
Number of Mice Alive, 72 hrs (endotoxic mice; [18]): 5
Number of Mice Alive, 96 hrs (endotoxic mice; [18]): 5
Number of Mice Alive, 120 hrs (endotoxic mice; [18]): 5
Number of Mice Alive, 48 hrs (endotoxic mice; [19]): 8
Number of Mice Alive, 72 hrs (endotoxic mice; [19]): 8
Number of Mice Alive, 96 hrs (endotoxic mice; [19]): 8
Number of Mice Alive, 120 hrs (endotoxic mice; [19]): 8
Number of Mice Alive, 48 hrs (endotoxic mice; [20]): 8
Number of Mice Alive, 72 hrs (endotoxic mice; [20]): 8
Number of Mice Alive, 96 hrs (endotoxic mice; [20]): 8
Number of Mice Alive, 120 hrs (endotoxic mice; [20]): 8
survival rate of mice treated with endotoxin (endotoxic mice; Tα1 administered 3 times post administration of endotoxin, Tables I and II): 100%
effective protective dose (endotoxic mice; administered three times, endotoxin lethality in mice): 100 µg
protective effect on endotoxin toxicity (endotoxic mice; given immediately following, 2 and 4 hours after, or 2, 4 and 6 hours after endotoxin treatment): had protective effect on endotoxin toxicity
PAF (plasma levels), 0.5 hr (PAF; [21]): 48 ± 3 pg/mL
PAF (plasma levels), 1 hr (PAF; [21]): 136 ± 9 pg/mL
PAF (plasma levels), 2 hr (PAF; [21]): 68 ± 4 pg/mL
PAF (plasma levels), 3 hr (PAF; [21]): 32 ± 2 pg/mL
PAF (serum levels), 1 hr (PAF; [22]): 783 pg/mL
PAF (serum levels), 3 hr (PAF; [22]): 508 pg/mL
PAF (serum levels), 5 hr (PAF; [22]): 429 pg/mL
PAF plasma levels (PAF; [9]): decreased
Cerebellar cortex cyclic GMP ([2]; Endotoxin 60 mg/kg i.p. + Tα1 100 μg): 14.6 ± 1.2 pmol per mg/protein
cerebellar cGMP levels ([2]; administration during sepsis): decreases cerebellar cGMP levels
Blood Levels of malonyldialdehyde (malonyldialdehyde [3]; Endotoxin 60 mg/kg + Tα1 100, whole blood 1 hour after endotoxin administration): 16.9 ± 1.36 nMol MDA
peroxidation of lipids in blood (malonyldialdehyde [3]; [23]): returned to normal or about normal
T × β2 (T × β2): 2353 ± 197 pg/mL
6-keto-PGF1 (6-keto-PGF1): 1132 ± 96 pg/mL
blood free radical levels [4]: reduce blood free radical levels almost as much as SOD
RBC GSH (glutathione (RBC GSH) [5]; Endotoxin 60 mg/kg + Tα1 100 μg/mouse, total erythrocyte glutathione): 1.12 ± 0.12 μmoles/ml cells
circulating blood levels of glutathione (glutathione (RBC GSH) [5]; [23]): returns circulatory gluthathine leves to normal or about normal
Survival of Sprague-Dawley rats, 48 hr (Rats with Septic Shock; Table XV): 6
Survival of Sprague-Dawley rats, 72 hr (Rats with Septic Shock; Table XV): 6
Survival of Sprague-Dawley rats, 24 hr (Rats with Septic Shock; Table XV): 8
survival of rats (Rats with Septic Shock; Table XV, with antibiotic): increased the survival of rats
Number of Rats Alive, 24 h (Rats with Septic Shock; Table XX): 9
Number of Rats Alive, 48 h (Rats with Septic Shock; Table XX): 9
Number of Rats Alive, 72 h (Rats with Septic Shock; Table XX): 5
Number of Rats Alive, 24 h (Rats with Septic Shock; Table XXI): 8
Number of Rats Alive, 48 h (Rats with Septic Shock; Table XXI): 7
Number of Rats Alive, 72 h (Rats with Septic Shock; Table XXI): 3
survival rate of rats with septic shock (Rats with Septic Shock; Tables XX and XXI): increases the survival rate of rats with septic shock
RBC GSH (glutathione (RBC GSH) [6]; [13]): 1.29 ± 0.07 μmoles/ml cells
RBC GSH (glutathione (RBC GSH) [6]; [14]): 1.20 ± 0.085 μmoles/ml cells
IL1 α (IL1 α): 689 ± 53 pg/mL

gentamicin sulfate [antibiotic, reference compound]
Survival of Sprague-Dawley rats, 48 hr (Rats with Septic Shock; Table XV): 1
Survival of Sprague-Dawley rats, 72 hr (Rats with Septic Shock; Table XV): 0
Survival of Sprague-Dawley rats, 24 hr (Rats with Septic Shock; Table XV): 1
